A short description of experiment [1]: Antioxidant activity assessed as superoxide radical scavenging activity at 0.40 mg/mL. The class given is functional.
Experiment [2] is described as follows: Antioxidant activity assessed as hydroxyl radical scavenging activity. Type of experiment: functional.

As to `O=C1O[C@H]([C@@H](O)CO)C(O)=C1O` [ASCORBIC ACID], the Activity in experiment [1] is 33.9%. In addition, the concentration for half-maximal inhibition (IC50) in experiment [2] is over 711 µg/mL.

The values are drawn from ChEMBL document CHEMBL1158174, “The antioxidant activity of 2-(4(or 2)-hydroxyl-5-chloride-1,3-benzene-di-sulfanimide)-chitosan” (Eur J Med Chem, 2008).
